# Experimental data taken from ChEMBL document CHEMBL1201862, “PubChem BioAssay data set” (2004).
# Active and inactive are the calls of the source.
# Legend:
# [1] = biological target: T1, Delta-type opioid receptor (Homo sapiens, UniProt P41143); assay: HTS Image-Based Screen for Antagonists of the DOR Receptor. [Related pubchem assays (depositor defined):AID1777, AID1785, AID1786, AID2133]; format: functional
# Mu-type opioid receptor = Mu-type opioid receptor (Homo sapiens, UniProt P35372); assay: HTS Image-Based Screen for Agonists of the MOR Receptor. [Related pubchem assays (depositor defined):AID1777, AID1785, AID1786, AID2133]; format: functional;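 also: imaging of beta-arrestin GFP recruitment into spots after receptor activation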
# [2] = biological target: Neuropeptide Y receptor type 2 (Homo sapiens, UniProt P49146); assay: IC50 for human NPY-Y2 blockade – cell-based, counter-screen for NPY-Y1 antagonist project, dose response (AID 1278); format: functional
# [3] = biological target: T1, Delta-type opioid receptor; assay: HTS Image-Based Screen for Agonists of the DOR Receptor. [Related pubchem assays (depositor defined):AID1777, AID1786, AID2133]; format: functional
# [4] = biological target: Neuropeptide Y receptor type 1 (Homo sapiens, UniProt P25929); assay: IC50 of human NPY-Y1 blockers – cell-based, dose response (AID 1277); format: functional
# [5] = biological target: T2, Kappa-type opioid receptor (Homo sapiens, UniProt P41145); format: functional
# [6] = biological target: T2, Kappa-type opioid receptor; format: functional; remark: listed apart in the source
# Leucine aminopeptidase = biological target: T3, Leucine aminopeptidase (Plasmodium falciparum 3D7, UniProt Q8IL11); assay: P. falciparum M17LAP inhibitors, primary screen, biochemical, fluorogenic H-Leu-NHMec substrate, 1536-well (AID 1619); format: functional
# T3 sequence (Q8IL11 whole entry): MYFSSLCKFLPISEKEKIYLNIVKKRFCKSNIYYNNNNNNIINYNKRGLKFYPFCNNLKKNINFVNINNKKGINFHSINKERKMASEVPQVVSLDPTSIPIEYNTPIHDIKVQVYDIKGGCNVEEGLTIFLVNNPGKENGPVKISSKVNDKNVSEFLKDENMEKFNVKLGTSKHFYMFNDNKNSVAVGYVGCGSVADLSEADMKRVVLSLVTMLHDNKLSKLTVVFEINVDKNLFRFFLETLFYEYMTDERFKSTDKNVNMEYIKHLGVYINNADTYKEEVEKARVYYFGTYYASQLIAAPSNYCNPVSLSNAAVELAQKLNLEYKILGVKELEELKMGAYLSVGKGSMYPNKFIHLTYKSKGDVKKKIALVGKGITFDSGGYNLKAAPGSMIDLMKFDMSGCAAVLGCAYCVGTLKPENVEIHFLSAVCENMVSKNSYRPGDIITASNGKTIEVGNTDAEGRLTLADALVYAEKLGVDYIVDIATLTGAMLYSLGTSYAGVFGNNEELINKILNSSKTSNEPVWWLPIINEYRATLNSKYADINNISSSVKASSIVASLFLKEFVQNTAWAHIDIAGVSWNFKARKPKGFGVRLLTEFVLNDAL
# [7] = Counterscreen for IDE inhibitors: Luminescence-based cell-based high throughput dose response assay to identify compounds that are cytotoxic to HEK cells. [Related pubchem assays: 434962 (Primary screen (IDE inhibitors in singlicate)), 449730 (Counterscreen (Cytotoxicity in triplicate)), 435028 (Confirmation (IDE inhibitors in triplicate)) …; format: functional; conditions: HEK293
# Insulin-degrading enzyme = Insulin-degrading enzyme (Homo sapiens, UniProt P14735); assay: Dose Response: Fluorescence polarization-based cell-based high throughput dose response assay for inhibitors of insulin-degrading enzyme (IDE). [Related pubchem assays: 434962 (Primary screen (IDE inhibitors in singlicate)), 449730 (Counterscreen (Cytotoxicity in triplicate)), 435028 (Confirmation (IDE inhibitors in triplicate)), 434984 (Summary …; format: functional
# Aspartyl aminopeptidase = Aspartyl aminopeptidase (Plasmodium falciparum 3D7, UniProt Q8I2J3)
# Procathepsin L = Procathepsin L (Homo sapiens, UniProt P07711)
# Large T antigen = Large T antigen (Simian virus 40, UniProt P03070); format: functional, Betapolyomavirus macacae;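 also: Confirmatory-stage PubChem screen for compounds that inhibit SV40 T antigen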
# [8] = NIH-3T3 fibroblast cytotoxicity, dose response, cytotoxicity control, cell-based, fluorescence, Alamar Blue, secondary assay (AID 2327); format: functional;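 also: NIH-3T3 mouse fibroblasts cultured with fluconazole at 8 µg/mL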
# cells [9] = format: functional, cell-based
# [10] = fluconazole-exposed Candida albicans growth modulators – fluorescence, retest, confirmation (AID 2467); format: functional, cell-based
# [11] = biological target: T4, Mannose-6-phosphate isomerase (Homo sapiens, UniProt P34949); assay: MPI enzyme activity inhibition – biochemical, fluorescence intensity, coupled assay, primary screen (AID 1209)
# T4 sequence (P34949 whole entry): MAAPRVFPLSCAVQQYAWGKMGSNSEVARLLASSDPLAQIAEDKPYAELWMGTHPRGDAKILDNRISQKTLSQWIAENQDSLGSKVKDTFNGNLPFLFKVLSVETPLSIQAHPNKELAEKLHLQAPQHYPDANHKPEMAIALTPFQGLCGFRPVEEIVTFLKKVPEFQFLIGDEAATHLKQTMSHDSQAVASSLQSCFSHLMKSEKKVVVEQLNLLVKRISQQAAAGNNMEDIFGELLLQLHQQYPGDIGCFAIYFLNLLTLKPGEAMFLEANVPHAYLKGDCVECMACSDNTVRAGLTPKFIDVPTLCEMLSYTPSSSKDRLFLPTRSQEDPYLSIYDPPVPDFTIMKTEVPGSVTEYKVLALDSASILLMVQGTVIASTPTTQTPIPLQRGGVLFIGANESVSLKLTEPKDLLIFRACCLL
# cells [12] = format: functional, cell-based; remark: listed apart in the source
# [13] = biological target: T5, Serine/threonine-protein phosphatase (Candida dubliniensis (strain CD36 / CBS 7987 / NCPF 3949 / NRRLY-17841) (Yeast), UniProt B9W6M3); assay: blockers of CaCl2-induced CDRE-lacZ signaling – S. cerevisiae, luminescence, secondary, dose response (AID 2388); format: functional, cell-based;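 also: yeast reporter cells carrying a calcineurin-responsive lacZ construct stimulated with calcium chloride; luminescent beta-galactosidase reporter signal in whole cells rather than isolated phosphatase activity; potency for inhibition where a drop in reporter signal means calcineurin blockade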
# T5 sequence (B9W6M3 whole entry): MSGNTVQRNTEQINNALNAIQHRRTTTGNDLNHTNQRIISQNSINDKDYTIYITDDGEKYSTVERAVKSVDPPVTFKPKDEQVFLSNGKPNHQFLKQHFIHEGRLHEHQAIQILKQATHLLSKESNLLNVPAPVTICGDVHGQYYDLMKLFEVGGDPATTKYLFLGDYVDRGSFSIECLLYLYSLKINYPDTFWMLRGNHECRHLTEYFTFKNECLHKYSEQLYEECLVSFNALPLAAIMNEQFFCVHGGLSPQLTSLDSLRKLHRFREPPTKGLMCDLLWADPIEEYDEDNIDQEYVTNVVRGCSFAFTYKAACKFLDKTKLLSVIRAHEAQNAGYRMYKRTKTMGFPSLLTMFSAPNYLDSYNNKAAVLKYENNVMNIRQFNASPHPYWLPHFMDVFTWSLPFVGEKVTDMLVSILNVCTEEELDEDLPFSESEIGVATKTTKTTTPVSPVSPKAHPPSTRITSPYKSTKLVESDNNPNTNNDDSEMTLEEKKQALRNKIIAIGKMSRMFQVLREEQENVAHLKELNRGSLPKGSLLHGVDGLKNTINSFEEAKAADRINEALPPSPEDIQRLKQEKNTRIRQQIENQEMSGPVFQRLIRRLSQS
# [14] = mitochondrial function rescue without frataxin homolog – Friedreich's ataxia, plus single-dose screen, dose response (AID 1465); format: functional;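 also: yeast depleted of Yfh1p frataxin homolog grown on glycerol needing respiration; WST-1 tetrazolium dye reduction as measure of cellular dehydrogenase metabolic activity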
# [15] = biological target: Induced myeloid leukemia cell differentiation protein Mcl-1 (Homo sapiens, UniProt Q07820); format: functional
# [16] = biological target: T4, Mannose-6-phosphate isomerase; assay: MPI inhibition at elevated mannose 6-phosphate – biochemical, fluorescence intensity, high mannose 6-phosphate, primary screen (AID 1220)
# Coagulation factor XII = biological target: T6, Coagulation factor XII (Homo sapiens, UniProt P00748); format: functional;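 also: activated factor XIIa alpha cleaving a fluorogenic AMC peptide substrate; inhibitor potency from loss of enzyme activity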
# T6 sequence (P00748 whole entry): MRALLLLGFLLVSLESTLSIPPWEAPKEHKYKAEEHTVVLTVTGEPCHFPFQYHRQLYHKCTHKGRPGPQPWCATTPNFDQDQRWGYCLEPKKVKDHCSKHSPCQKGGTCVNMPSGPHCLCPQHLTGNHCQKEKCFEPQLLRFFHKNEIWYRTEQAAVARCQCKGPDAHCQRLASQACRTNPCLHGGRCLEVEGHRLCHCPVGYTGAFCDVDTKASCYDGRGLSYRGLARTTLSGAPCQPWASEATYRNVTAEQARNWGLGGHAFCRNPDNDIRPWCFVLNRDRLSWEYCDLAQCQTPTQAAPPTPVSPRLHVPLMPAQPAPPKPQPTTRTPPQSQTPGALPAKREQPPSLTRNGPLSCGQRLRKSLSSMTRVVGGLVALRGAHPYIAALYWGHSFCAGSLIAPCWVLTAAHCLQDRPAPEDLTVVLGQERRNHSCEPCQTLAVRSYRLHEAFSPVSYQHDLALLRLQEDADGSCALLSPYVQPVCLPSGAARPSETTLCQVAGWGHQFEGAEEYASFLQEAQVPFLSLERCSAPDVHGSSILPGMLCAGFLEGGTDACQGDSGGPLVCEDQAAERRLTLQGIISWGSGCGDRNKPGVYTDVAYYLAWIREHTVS
# [17] = biological target: ATP-dependent molecular chaperone HSP82 (Candida albicans (strain WO-1) (Yeast), UniProt C4YTQ8); assay: steroid-induced GRE reporter decrease in yeast – S. cerevisiae, luminescence, Hsp90 inhibitor project, dose response (AID 2400); format: functional, cell-based;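 also: beta-galactosidase luminescence from glucocorticoid response element reporter as proxy for Hsp90 function; inhibitor potency where signal loss means Hsp90 inhibition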
# Vero = assay: Vero cell viability after compound exposure – synthesized analogs, set II, cytotoxicity control for West Nile virus antiviral project, SAR follow-up (AID 2402); format: functional; conditions: Chlorocebus sabaeus
# [18] = A Cell Based Assay for the Identification of Probe candidate Compounds with Anti- Venezuelan Equine Encephalitis virus. [Related pubchem assays: 2409, 2419, 1621, 2238, 2405, 2024, 2065, 2402, 2414, 1635, 1650, 2244 ]; format: functional
# T1 sequence (P41143 whole entry): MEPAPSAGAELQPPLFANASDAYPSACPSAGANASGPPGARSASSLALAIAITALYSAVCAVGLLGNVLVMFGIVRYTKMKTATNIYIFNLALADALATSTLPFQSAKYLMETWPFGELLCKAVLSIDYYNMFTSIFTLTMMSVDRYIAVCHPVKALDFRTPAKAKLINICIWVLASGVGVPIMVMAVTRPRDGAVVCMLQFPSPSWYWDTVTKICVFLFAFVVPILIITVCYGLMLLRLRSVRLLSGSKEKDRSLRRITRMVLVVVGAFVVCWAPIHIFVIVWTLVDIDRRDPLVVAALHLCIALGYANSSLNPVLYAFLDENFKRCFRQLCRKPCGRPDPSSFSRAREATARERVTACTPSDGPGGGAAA
# T2 sequence (P41145 whole entry): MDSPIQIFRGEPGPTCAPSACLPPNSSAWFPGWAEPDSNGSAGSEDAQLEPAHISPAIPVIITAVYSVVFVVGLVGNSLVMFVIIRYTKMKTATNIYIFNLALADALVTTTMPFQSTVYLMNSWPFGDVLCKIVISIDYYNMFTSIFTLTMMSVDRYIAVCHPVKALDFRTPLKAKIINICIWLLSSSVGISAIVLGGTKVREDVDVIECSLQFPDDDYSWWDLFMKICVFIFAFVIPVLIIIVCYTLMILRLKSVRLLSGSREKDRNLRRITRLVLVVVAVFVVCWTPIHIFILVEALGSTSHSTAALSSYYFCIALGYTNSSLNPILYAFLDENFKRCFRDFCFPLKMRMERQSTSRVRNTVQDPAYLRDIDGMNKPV
# Sequence of Mu-type opioid receptor (P35372 whole entry): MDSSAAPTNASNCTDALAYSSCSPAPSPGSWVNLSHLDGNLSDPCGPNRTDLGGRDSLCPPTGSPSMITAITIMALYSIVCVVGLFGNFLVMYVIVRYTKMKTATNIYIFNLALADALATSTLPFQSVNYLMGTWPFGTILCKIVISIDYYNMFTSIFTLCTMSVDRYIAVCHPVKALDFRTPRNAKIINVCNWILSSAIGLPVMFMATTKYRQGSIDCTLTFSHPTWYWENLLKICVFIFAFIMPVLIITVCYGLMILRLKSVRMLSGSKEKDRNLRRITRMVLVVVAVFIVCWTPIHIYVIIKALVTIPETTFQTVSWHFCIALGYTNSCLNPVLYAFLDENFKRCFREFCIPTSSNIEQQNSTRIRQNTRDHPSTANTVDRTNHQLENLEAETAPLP
# Sequence of Neuropeptide Y receptor type 2 (P49146 whole entry): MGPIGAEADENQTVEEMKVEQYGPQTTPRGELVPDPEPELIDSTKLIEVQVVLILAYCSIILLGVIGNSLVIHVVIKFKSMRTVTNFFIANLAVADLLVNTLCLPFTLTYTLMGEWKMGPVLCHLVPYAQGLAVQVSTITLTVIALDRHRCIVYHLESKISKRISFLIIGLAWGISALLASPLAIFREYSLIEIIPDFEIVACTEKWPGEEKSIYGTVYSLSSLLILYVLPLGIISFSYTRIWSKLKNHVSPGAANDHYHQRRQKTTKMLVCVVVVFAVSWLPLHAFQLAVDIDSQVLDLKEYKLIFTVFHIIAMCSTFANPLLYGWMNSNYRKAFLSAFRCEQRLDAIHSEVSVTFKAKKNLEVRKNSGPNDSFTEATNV
# Sequence of Large T antigen (P03070 whole entry): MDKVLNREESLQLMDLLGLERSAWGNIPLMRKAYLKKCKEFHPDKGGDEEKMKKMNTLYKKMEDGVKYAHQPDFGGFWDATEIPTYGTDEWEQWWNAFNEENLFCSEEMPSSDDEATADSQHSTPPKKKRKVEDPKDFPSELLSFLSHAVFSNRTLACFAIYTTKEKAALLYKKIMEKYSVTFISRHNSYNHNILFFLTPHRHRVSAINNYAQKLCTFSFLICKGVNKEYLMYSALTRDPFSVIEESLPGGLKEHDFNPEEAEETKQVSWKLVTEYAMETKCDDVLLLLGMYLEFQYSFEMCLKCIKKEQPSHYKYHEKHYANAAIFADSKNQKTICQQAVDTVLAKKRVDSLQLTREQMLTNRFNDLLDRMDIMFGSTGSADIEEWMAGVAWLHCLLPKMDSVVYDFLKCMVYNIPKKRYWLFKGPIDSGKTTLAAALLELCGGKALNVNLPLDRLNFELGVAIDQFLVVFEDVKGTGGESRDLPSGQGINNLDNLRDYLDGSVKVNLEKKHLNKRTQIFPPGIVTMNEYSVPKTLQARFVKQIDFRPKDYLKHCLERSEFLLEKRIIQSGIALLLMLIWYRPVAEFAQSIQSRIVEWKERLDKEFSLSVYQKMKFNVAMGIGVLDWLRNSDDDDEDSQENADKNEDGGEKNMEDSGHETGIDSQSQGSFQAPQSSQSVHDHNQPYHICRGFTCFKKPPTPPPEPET
# Sequence of Aspartyl aminopeptidase (Q8I2J3 whole entry): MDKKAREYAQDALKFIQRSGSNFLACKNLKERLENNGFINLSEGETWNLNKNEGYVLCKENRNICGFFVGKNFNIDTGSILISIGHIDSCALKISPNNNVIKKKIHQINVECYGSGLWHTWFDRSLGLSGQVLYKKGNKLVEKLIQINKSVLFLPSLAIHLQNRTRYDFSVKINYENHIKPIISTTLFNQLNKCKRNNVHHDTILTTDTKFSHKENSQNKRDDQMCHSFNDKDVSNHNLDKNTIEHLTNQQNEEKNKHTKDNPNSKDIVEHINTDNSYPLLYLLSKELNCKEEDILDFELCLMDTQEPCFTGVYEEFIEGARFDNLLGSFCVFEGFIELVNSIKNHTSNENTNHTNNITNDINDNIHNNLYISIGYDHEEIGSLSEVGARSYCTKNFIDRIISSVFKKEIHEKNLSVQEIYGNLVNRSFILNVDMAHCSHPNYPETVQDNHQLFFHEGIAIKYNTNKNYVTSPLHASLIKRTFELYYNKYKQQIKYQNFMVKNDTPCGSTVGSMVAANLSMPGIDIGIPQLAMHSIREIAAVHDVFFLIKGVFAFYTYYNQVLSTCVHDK
# Sequence of Insulin-degrading enzyme (P14735 whole entry): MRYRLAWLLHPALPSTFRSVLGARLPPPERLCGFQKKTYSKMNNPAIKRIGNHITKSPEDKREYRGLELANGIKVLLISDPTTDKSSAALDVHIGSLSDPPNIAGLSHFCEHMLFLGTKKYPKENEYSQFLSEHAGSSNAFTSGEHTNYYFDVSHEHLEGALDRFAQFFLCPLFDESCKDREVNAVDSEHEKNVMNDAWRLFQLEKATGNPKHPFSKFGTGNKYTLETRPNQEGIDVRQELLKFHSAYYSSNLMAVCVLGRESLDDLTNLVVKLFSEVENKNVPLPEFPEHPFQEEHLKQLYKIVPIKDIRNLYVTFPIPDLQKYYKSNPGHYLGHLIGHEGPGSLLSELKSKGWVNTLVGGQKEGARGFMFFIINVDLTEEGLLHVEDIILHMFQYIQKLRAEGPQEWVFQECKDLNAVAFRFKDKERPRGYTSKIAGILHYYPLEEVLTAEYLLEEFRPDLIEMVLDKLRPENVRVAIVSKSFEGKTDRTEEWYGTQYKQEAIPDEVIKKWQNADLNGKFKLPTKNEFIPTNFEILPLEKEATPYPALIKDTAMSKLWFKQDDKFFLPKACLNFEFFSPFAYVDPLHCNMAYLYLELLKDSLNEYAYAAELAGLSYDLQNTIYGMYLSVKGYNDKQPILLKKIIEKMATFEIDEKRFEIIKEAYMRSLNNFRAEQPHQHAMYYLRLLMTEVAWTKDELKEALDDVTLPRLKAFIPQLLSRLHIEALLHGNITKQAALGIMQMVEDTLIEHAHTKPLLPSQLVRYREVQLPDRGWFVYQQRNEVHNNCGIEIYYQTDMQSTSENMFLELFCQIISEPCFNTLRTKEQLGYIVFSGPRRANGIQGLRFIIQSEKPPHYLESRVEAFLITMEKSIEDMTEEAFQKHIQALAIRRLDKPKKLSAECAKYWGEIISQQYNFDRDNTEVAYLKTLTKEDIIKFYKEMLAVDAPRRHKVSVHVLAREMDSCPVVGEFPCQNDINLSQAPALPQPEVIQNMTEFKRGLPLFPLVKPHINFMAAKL
# Sequence of Procathepsin L (P07711 whole entry): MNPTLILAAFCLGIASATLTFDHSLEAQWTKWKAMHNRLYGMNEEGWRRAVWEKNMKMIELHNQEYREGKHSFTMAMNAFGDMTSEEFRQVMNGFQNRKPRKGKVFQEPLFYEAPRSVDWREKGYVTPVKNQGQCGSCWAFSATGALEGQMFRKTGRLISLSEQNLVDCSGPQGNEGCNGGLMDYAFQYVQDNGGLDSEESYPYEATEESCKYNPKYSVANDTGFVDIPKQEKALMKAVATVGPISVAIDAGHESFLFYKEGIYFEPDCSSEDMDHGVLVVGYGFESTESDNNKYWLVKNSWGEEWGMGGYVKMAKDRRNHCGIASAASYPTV
# Sequence of Induced myeloid leukemia cell differentiation protein Mcl-1 (Q07820 whole entry): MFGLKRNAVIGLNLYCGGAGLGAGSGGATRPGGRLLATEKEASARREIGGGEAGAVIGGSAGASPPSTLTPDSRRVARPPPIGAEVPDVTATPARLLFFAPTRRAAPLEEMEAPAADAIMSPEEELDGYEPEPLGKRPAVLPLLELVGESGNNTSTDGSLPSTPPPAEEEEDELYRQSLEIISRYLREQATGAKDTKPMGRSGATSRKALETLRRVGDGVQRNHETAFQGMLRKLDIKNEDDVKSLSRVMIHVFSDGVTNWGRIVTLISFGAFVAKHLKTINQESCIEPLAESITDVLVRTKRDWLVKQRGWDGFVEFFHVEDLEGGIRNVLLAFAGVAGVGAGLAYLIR
# Sequence of Neuropeptide Y receptor type 1 (P25929 whole entry): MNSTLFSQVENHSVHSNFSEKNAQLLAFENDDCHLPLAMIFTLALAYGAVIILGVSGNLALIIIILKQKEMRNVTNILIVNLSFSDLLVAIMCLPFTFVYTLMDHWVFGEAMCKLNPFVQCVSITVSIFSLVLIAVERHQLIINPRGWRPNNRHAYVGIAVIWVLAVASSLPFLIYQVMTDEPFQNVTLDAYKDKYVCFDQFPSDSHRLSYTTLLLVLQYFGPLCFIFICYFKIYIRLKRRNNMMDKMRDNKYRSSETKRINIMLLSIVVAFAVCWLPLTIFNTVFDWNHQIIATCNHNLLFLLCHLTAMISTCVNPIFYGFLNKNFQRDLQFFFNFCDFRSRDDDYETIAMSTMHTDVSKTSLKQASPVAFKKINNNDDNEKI
compound,measurement,setting,value
O=C(c1cnccn1)N(Cc1ccco1)C1(C(=O)NC2CCCCC2)CCCCC1,IC50,[1],> 32 µM (inactive)
same,EC50,Mu-type opioid receptor,> 32 µM (inactive)
same,IC50,[2],> 35 µM (not active)
same,EC50,[3],> 32 µM (inactive)
same,IC50,[4],> 35 µM (not active)
same,EC50,[5],1.32 µM
same,EC50,[6],2.39 µM
O=C(O)CC12CC3CC(C1)CC(n1ncc(NCc4ccc(F)cc4Cl)c(Cl)c1=O)(C3)C2,IC50,Leucine aminopeptidase,32.1 µM (active)
same,IC50,[7],> 55.7 µM (not active)
same,IC50,Insulin-degrading enzyme,18.1 µM (not active)
N/C(=N\N=C\c1ccc(O)cc1O)N[N+](=O)[O-],IC50,Aspartyl aminopeptidase,4.61 µM (active)
same,IC50,Procathepsin L,> 59.6 µM (not active)
same,IC50,Large T antigen,8.78 µM (active)
O=C(N/N=C/c1ccc(O)c(O)c1O)/C(=C/c1ccc([N+](=O)[O-])cc1)NC(=O)c1ccccc1,EC50,[8],> 160 µM (inactive)
same,EC50,cells [9],> 350 µM (not active)
same,EC50,[10],0.587 µM (active)
same,IC50,[11],> 50 µM (not active)
same,EC50,cells [12],> 350 µM (not active)
same,EC50,[13],> 180 µM (inactive)
same,EC50,[14],> 100 µM (active)
same,IC50,[15],19.3 µM (active)
same,IC50,[16],> 50 µM (not active)
same,IC50,Coagulation factor XII,> 50 µM (inactive)
same,EC50,[17],> 160 µM (inactive)
COc1ccc(Cn2nc(C)cc2OC(=O)c2ccccc2)cc1,CC50,Vero,> 200 µM (active)
same,IC50,[18],> 133 µM (active)
